Values of other authors as cited in patent US20060287500A1, “Method for synthesis of C2-symmetric diamino diol mediated by titanium complexes” (priority 2005, published 2006).

How the values were obtained:
FIV protease = FIV protease (Feline immunodeficiency virus, UniProt P16088); details: in vitro
HIV protease = HIV protease (Human immunodeficiency virus type 1 group M subtype B, UniProt P04585); details: in vitro
[1] = system: HIV, SIV, FIV and many of the 150 different clinical mutant strains
FIV = details: feline model

In the case of `CC(C)[C@H](NC(=O)[C@H](C)NC(=O)OCc1ccccc1)C(=O)N[C@@H](Cc1ccccc1)[C@@H](O)[C@H](O)[C@H](Cc1ccccc1)NC(=O)[C@@H](NC(=O)[C@H](C)NC(=O)OCc1ccccc1)C(C)C` [TL-3], the Ki (FIV protease) is listed as 41 nM, the Ki (HIV protease) is listed as 1.5 nM and the “effectiveness against HIV, SIV, FIV and clinical mutant strains” value [1] is listed as “equally effective”. For the same molecule, the “drug resistance developing against the inhibitor” value (FIV) was “No evidence for drug resistance developing”.
